# Experiments:
# Assay type in all cases: in vivo, BALB/c mice
# [1] = test system: epidermal thickness; assay: Time course of TPA effects on skin of mice: epidermal thickness; details: for Increase in epidermal thickness: single application 100 μL TPA 0.01% in acetone
# Experimental: Epidermal thickness was determined by image analysis. This image analysis system was a minicomputer (Tracor Northern TN8500) attached to a light microscope (Zeiss Axioplan) and a camcorder (Sony DXC-3000P). Sections were taken from each tissue block and 20 measurements were taken at fixed intervals from each section. The average value for the 20 measurements was obtained and entered as one value for each mouse. The mean and SEM for the six mice in each treatment group were calculated.
# (§1) This study was conducted to determine the time course of effects produced by applying TPA to mice and killing at intervals of 1, 2, 3, 5 and 8 days. Peak times for epidermal hyperplasia, dermal inflammation and skin-fold thickness were determined. The object of this study was to determine the best time to sacrifice TPA-treated mice so as to obtain the maximum response to TPA. […] It was thus expected that a compromise time would have to be selected.
# (§2) Forty two female BALB/c strain mice were divided into the treatment groups and the mice were treated with a single application (100 μL) of TPA (0.01% in acetone) and sacrificed at days 1, 2, 3, 5 and 8 and the time course of TPA effects on epidermal hyperplasia, dermal inflammatory cell infiltration and skin-fold thickness measured as described in Example 1.
# [2] = test system: skin-fold thickness; assay: Time course of TPA effects on skin of mice: skin-fold thickness; details: for Increase in skin-fold thickness: single application 100 μL TPA 0.01% in acetone
# Experimental: The back skin of shaved mice was folded and measured by using a “Etalon” micrometer screw gauge. One measurement was taken for each mouse.
# as §1, §2
# [3] = test system: dermal inflammatory cell density; assay: Time course of TPA effects on skin of mice: dermal inflammatory cell density; details: for Increase in dermal inflammatory cell density: single application 100 μL TPA 0.01% in acetone
# Experimental: Infiltration of inflammatory cells was determined by the same image analysis system using the section taken from the block of mouse skin embedded in paraffin wax or Spurr's resin and stained with haematoxylin and eosin or toluidine blue respectively. For each section, 10 fields, unless otherwise stated, were chosen randomly and the cell density per mm^2 of field determined. The average value for the 10 fields was obtained and entered as one value for each mouse. The mean and SEM for the six mice in each treatment group were calculated.
# The measurement of the inflammatory cell infiltration included the background values which included other materials in the dermis stained in the same way. However, the increase, if there is any, reflects the migration of inflammatory cells.
# as §1, §2
smiles,measurement,setting,value
"CCCCCCCCCCCCCC(=O)O[C@@H]1[C@@H](C)[C@@]2(O)[C@@H](C=C(CO)C[C@]3(O)C(=O)C(C)=C[C@@H]23)[C@@H]2C(C)(C)[C@]12OC(C)=O [TPA, 12-O-tetradecanoylphorbol 13-acetate]",Increase in epidermal thickness,[1]; Day 1,326%
same,Increase in epidermal thickness,[1]; Day 2,382%
same,Increase in epidermal thickness,[1]; Day 3,393%
same,Increase in epidermal thickness,[1]; Day 5,270%
same,Increase in epidermal thickness,[1]; Day 8,130%
same,"Time of peak effect, epidermal hyperplasia",[1]; single application of TPA,72 h
same,Increase in skin-fold thickness,[2]; Day 1,193%
same,Increase in skin-fold thickness,[2]; Day 2,142%
same,Increase in skin-fold thickness,[2]; Day 3,124%
same,Increase in skin-fold thickness,[2]; Day 5,116%
same,Increase in skin-fold thickness,[2]; Day 8,107%
same,"Time of peak effect, skin-fold thickening",[2]; single application of TPA,24 h
same,Increase in dermal inflammatory cell density,[3]; Day 1,397%
same,Increase in dermal inflammatory cell density,[3]; Day 2,296%
same,Increase in dermal inflammatory cell density,[3]; Day 3,272%
same,Increase in dermal inflammatory cell density,[3]; Day 5,280%
same,Increase in dermal inflammatory cell density,[3]; Day 8,225%
same,"Time of peak effect, dermal inflammation",[3]; single application of TPA,24 h

# From patent US20050267204A1, “Synergistic gold-containing compositions” (MEDICAL INNOVATIONS LIMITED, priority 1996, published 2005)
